Results: patent publication US20100251436A1, “METHOD FOR GROWING SUGARCANE” (SYNGENTA CROP PROTECTION, INC., priority 2007, published 2010)

Test system: sugar cane Variety RB 86-7515
Assay: Greenhouse pot test of formulated agrochemicals on vigour (tillers, plant height, leaf width, culm diameter)
Conditions: for number of tillers in comparison with the control / plant height in comparison with the control: greenhouse, rate of the respective example
From the text: 1) carretel with one bud treated with abamectin 2) carretel with one bud treated with abamectin+15% v/v of polymer 3) stalk with 3 buds untreated 4) carretel with one bud untreated 5) carretel with one bud untreated+15% v/v of polymer 6) stalk with 3 buds treated with abamectin.
Twenty 1 L pots were filled with 16 L of clay soil, 1.6 L of sand and 8 g of nitrogen, 28 g of phosphorus (P2O5) and 16 g of potassium (K2O). Six carretels of 4 cm length with only one bud were planted in each pot (treatments 1, 2, 4 and 5). Two stalks with three buds were planted in each control pot (treatments 3 and 6) to simulate conventional planting. A layer of 3 cm of soil was used to cover the carretels. […] The stalks were treated simulating a furrow application at 100 L.ha^−1 of slurry. Experimental design adopted was randomized complete block with four replications. The pots were maintained with adequate moisture during the test. Evaluations of: plant height, leaf width, culm diameter and number of tillers were done at 20, 30 and 42 days after planting.

Row | Molecule | number of tillers in comparison with the control (result in words) | plant height in comparison with the control (result in words) | increase in "quality" (result in words, not apparent from the measured parameters) | Tillers (abamectin 100 g ai/ha, carretel with one bud, dipped in slurry 3 min, 42 days after planting)
1 | O=[N+]([O-])NC1=NCCN1Cc1ccc(Cl)nc1 [Imidacloprid] | increase |  |  | 
2 | CN1COCN(Cc2cnc(Cl)s2)/C1=N\[N+](=O)[O-] [Thiamethoxam, thiamethoxam] | increased | reduced | greater than the other treatments | 
3 | abamectin | increase | decrease |  | 14 number
4 | N#Cc1nn(-c2c(Cl)cc(C(F)(F)F)cc2Cl)c(N)c1[S+]([O-])C(F)(F)F (centres unmarked) [Fipronil, fipronil] | increased | decreased |  | 
5 | CN/C(=N\[N+](=O)[O-])NCc1cnc(Cl)s1 [Clothianidin, clothianidin] | increased | slight reduction |  | 
